From ChEMBL document CHEMBL1131871, “Piperidinylpyrroles: design, synthesis and binding properties of novel and selective dopamine D4 receptor ligands” (Bioorg Med Chem Lett, 1999)

Columns and labels:
D(2) dopamine receptor [1] = molecular target: T1, D(2) dopamine receptor (Homo sapiens, UniProt P14416); assay: Displacement of [3H]spiperone from human Dopamine receptor D2S expressed in CHO cells; format: cell-based
D(2) dopamine receptor [2] = molecular target: T1, D(2) dopamine receptor; assay: Displacement of [3H]spiperone from human Dopamine receptor D2L expressed in CHO cells; format: cell-based
D(4) dopamine receptor = molecular target: T2, D(4) dopamine receptor (Homo sapiens, UniProt P21917); assay: Displacement of [3H]spiperone from human Dopamine receptor D4.4 expressed in CHO cells; format: cell-based
T2 sequence (P21917 whole entry): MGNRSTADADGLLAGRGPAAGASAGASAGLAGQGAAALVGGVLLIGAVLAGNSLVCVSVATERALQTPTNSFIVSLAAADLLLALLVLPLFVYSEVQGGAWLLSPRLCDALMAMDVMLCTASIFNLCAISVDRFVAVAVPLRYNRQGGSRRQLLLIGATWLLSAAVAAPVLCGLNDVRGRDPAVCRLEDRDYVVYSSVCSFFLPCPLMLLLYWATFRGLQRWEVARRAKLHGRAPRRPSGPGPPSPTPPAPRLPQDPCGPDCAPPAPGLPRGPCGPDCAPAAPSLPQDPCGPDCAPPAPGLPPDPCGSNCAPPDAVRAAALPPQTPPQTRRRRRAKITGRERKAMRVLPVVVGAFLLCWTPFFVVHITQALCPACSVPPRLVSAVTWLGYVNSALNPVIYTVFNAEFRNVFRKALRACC

D(3) dopamine receptor = D(3) dopamine receptor (Homo sapiens, UniProt P35462); assay: Displacement of [3H]spiperone from human Dopamine receptor D3 expressed in CHO cells; format: cell-based
Sequence of D(3) dopamine receptor (P35462 whole entry): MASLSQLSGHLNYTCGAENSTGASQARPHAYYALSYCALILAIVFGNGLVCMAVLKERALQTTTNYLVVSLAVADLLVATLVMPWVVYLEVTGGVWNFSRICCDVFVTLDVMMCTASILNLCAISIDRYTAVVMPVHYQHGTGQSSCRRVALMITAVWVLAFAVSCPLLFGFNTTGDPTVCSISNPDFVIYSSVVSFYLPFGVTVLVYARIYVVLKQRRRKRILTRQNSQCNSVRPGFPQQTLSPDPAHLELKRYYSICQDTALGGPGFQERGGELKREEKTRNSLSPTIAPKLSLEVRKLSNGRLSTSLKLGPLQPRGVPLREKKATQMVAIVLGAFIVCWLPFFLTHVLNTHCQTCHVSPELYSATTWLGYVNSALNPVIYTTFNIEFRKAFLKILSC

D(1A) dopamine receptor = D(1A) dopamine receptor (Bos taurus, UniProt Q95136); assay: Displacement of [3H]SCH-23390 from bovine striatal membrane Dopamine receptor D1
Sequence of D(1A) dopamine receptor (Q95136 whole entry): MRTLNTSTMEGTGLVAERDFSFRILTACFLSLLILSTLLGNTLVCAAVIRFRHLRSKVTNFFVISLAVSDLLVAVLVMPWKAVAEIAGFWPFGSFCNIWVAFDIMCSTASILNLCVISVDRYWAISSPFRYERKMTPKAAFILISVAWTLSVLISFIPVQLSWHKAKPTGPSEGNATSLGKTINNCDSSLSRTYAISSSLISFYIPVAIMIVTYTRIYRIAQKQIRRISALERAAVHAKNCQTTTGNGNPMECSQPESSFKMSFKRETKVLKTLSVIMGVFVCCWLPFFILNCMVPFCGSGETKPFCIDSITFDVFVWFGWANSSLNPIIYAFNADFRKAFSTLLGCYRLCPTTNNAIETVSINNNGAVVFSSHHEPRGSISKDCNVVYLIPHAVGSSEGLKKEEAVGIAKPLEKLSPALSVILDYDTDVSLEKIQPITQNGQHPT

T1 sequence (P14416 whole entry): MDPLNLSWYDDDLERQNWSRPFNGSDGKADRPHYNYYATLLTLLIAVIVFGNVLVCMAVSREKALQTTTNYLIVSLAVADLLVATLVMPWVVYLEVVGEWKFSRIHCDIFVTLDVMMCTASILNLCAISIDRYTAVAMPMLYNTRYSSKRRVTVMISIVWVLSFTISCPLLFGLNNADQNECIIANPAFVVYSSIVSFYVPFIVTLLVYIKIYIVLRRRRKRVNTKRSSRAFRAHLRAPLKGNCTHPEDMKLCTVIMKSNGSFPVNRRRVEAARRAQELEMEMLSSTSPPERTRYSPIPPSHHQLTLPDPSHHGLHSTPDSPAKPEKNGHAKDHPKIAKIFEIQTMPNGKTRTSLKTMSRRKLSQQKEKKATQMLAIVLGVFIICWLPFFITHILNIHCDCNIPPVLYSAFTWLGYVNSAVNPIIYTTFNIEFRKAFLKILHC

| Ki (D(2) dopamine receptor [1]) [µM] | Ki (D(2) dopamine receptor [2]) [µM] | Ki (D(4) dopamine receptor) [µM] | Ki (D(3) dopamine receptor) [µM] | Ki (D(1A) dopamine receptor) [µM] | Structure (SMILES) |
| --- | --- | --- | --- | --- | --- |
| 8.3 | 10 | 3.3 | 8.7 | 16 | C(#Cc1cccn1C1CCN(Cc2ccccc2)CC1)c1ccccc1 |
| 18 | 13 | 0.23 | 7 | 14 | N#CC(C#N)=Cc1ccn(C2CCN(Cc3ccccc3)CC2)c1 |
| 0.32 | 0.61 | 0.063 | 0.77 | 10 | c1ccc(CN2CCC(n3cccc3-c3cnco3)CC2)cc1 |
| 5.3 | 8.5 | 1.5 | 2.6 | 11 | Ic1cccn1C1CCN(Cc2ccccc2)CC1 |
| 3.2 | 3.4 | 0.13 | 6.8 | 39 | c1ccc(CN2CCC(n3ccc(-c4cnco4)c3)CC2)cc1 |
| 4.9 | 6.2 | 2.7 | 7.7 | 14 | C[Si](C)(C)C#Cc1cccn1C1CCN(Cc2ccccc2)CC1 |
| 1.5 | 1.4 | 0.2 | 2.5 | 5.8 | O=Cc1cccn1C1CCN(Cc2ccccc2)CC1 |
| 6.3 | 6.6 | 0.94 | 7.9 | 14 | C#Cc1cccn1C1CCN(Cc2ccccc2)CC1 |
| 7.8 | 11 | 0.28 | 5.1 | 15 | N#CC(C#N)=Cc1cccn1C1CCN(Cc2ccccc2)CC1 |
| 9.8 | 8.5 | 1.1 | 15 | 34 | c1ccc(CN2CCC(n3cccc3)CC2)cc1 |
| 65 | 49 | 0.96 | 31 | 61 | O=Cc1ccn(C2CCN(Cc3ccccc3)CC2)c1 |
